Vestibular syndrome severity, Immobility time and Blood-brain barrier crossing data for 3 molecules are collected here from patent US20210038682A1, “MODULATORS OF SMALL CONDUCTANCE CALCIUM ACTIVATED K+ CHANNELS AND PHARMACEUTICAL COMPOSITIONS FOR USE IN THE TREATMENT OF LESIONAL VESTIBULAR DISORDERS” (priority 2018, published 2021).

The subject of series [1] is UVN adult female rats. In words: Subjective scoring of vestibular syndrome severity in the rat unilateral vestibular neurectomy model. It is filed as in vivo. As to the method:
(§1) A unilateral vestibular neurectomy (UVN) was performed on adult female rats in order to induce unilateral vestibulopathy. Then, the small conductance calcium activated K^+ channels antagonists apamin, AG525E1 and NS8593 were administered intraperitoneally to UVN animals in double blind conditions once a day for 4 days, i.e. during the acute phase of the syndrome. It was then assessed the severity of posturo-locomotor deficits using appropriate behavior tests for 10 days after UVN. Subjective scoring of the vestibular syndrome was carried out according to the method previously published (Péricat et al. 2017; Tighilet et al. 2017). […]

Series [2] relates to UVN adult female rats. The series can be described thus: Posturo-locomotor behavior tests (velocity, distance, immobility, meander) in the rat unilateral vestibular neurectomy model. The note with it: AG525E1 10 mg/kg i.p., from day 1. The class given is in vivo. The procedure: as §1
For series [3] the following is noted: systemic administration; cited from earlier work.

For `COc1cc2c(cc1OC)C(CCCC1c3cc(OC)c(OC)cc3CCN1C)N(C)CC2` (stereo not shown) [AG525E1, 1,1′-(propane-1,3-diyl)-bis-(6,7-dimethoxy-2-methyl-1,2,3,4-tetrahydroisoquinoline)], in the series on UVN adult female rats [1] (AG525E1 10 mg/kg i.p. once a day for 4 days, at day 1, p<0.05 vs negative control), the Vestibular syndrome severity entry is listed as “significant decreased vestibular syndrome”. Further, the Immobility time result in the series with UVN adult female rats [2] is recorded as “tendency to reduce immobility time”. Turning to `Cl.c1ccc2c(c1)CCC[C@H]2Nc1nc2ccccc2[nH]1` [NS8593, N-[(1R)-1,2,3,4-Tetrahydro-1-naphthalenyl]-1H-benzimidazol-2-amine hydrochloride], the Vestibular syndrome severity entry with UVN adult female rats [1] (NS8593 30 mg/kg i.p. once a day for 4 days, at day 1 and day 2, p<0.05 vs negative control) was “significant decreased vestibular syndrome”.

With `CC(C)C[C@@H]1NC(=O)[C@H](C)NC(=O)[C@H]([C@@H](C)O)NC(=O)[C@H](CCC(=O)O)NC(=O)[C@@H]2CCCN2C(=O)[C@H](C)NC(=O)[C@H](CCCCN)NC(=O)[C@@H]2CSSC[C@@H](C(=O)N[C@@H](CCC(N)=O)C(=O)N[C@@H](CCC(N)=O)C(=O)N[C@@H](Cc3cnc[nH]3)C(N)=O)NC(=O)[C@H](CCCNC(=N)N)NC(=O)[C@H](CCCNC(=N)N)NC(=O)[C@H](C)NC(=O)[C@H](CSSC[C@H](N)C(=O)N[C@@H](CC(N)=O)C(=O)N2)NC1=O` [apamin], the Blood-brain barrier crossing entry in series [3] is “cross the blood-brain barrier”.
